Assay results reported in ChEMBL document CHEMBL3044794, “Antifungal activity of some tetranortriterpenoids” (2000).

How the values were obtained:
Puccinia arachidis [1] = experiment: Antifungal activity against Puccinia arachidis in ground nut assessed as rust pustule count at 10 ug/cm'2 measured after 12 days from inoculation; format: functional
Puccinia arachidis [2] = experiment: Antifungal activity against Puccinia arachidis in ground nut assessed as rust pustule count at 1 ug/cm'2 measured after 12 days from inoculation (reference value: 22.73 %); format: functional

| Structure (SMILES) | inhibition (INH) (Puccinia arachidis [1]) [%] | inhibition (INH) (Puccinia arachidis [2]) [%] |
| --- | --- | --- |
| CC(=O)O[C@@H]1C[C@H]2C(C)(C)C(=O)C=C[C@]2(C)[C@H]2CC[C@]3(C)C(=CC(=O)[C@H]3c3ccoc3)[C@@]21C [AZADIRADIONE] | 76.9 | 75.7 |
| CC1(C)C(=O)C=C[C@@]2(C)C1=C(O)C(=O)[C@]1(C)[C@@H]2CC[C@@]2(C)[C@H](c3ccoc3)C[C@H]3O[C@]321 [CEDRELONE] | 93.4 | 98.4 |
| CC(=O)OC1=C2C(C)(C)C(=O)CC[C@]2(C)[C@H]2CC[C@@]3(C)[C@H](c4ccoc4)C[C@H]4O[C@]43[C@]2(C)C1=O [DIHYDROCEDRELONEDIACETATE] | 87 | 77.6 |
| CC1(C)C(=O)CC[C@@]2(C)C1=C(O)C(=O)[C@]1(C)[C@@H]2CC[C@@]2(C)[C@H](c3ccoc3)C[C@H]3O[C@]321 [DIHYDROCEDRELONE] | 66.7 | 42.6 |
| CC1(C)C(=O)C=C[C@@]2(C)C1C(O)(C(=O)O)[C@@]1(C)C[C@@]34O[C@@H]3C[C@@H](c3ccoc3)C4C[C@H]21 (stereo partly drawn) [ISOCEDRELONIC ACID] | 91.4 | 36.9 |
| CC1(C)O[C@H]2CC(=O)OC[C@]23[C@H]2CC[C@@]4(C)[C@H](c5ccoc5)OC(=O)[C@H]5O[C@]54[C@]2(C)C(=O)C[C@@H]13 [LIMONIN] | -15.7 | 67.7 |
| CC1(C)O[C@H]2CC(=O)OC[C@]23[C@H]2CC[C@@]4(C)[C@@H](c5ccoc5)OC(=O)[C@H]5O[C@]54[C@]2(C)[C@H](O)C[C@@H]13 [LIMONOL] | 62.3 | 37.9 |
| COC(=O)C1(O)C2C(C)(C)C(=O)C=C[C@]2(C)[C@H]2CC3[C@H](c4ccoc4)C[C@H]4O[C@@]34C[C@@]21C (stereo partly drawn) [METHYL ISOCEDRELONATE] | 2.3 | 7.6 |
| CC(=O)O[C@H](CC(=O)O)[C@]1(C)[C@H]2CC[C@@]3(C)[C@@H](c4ccoc4)OC(=O)[C@H]4O[C@]43[C@]2(C)C(=O)C[C@H]1C(C)(C)O [NOMILINIC ACID] | 34.2 | 28.5 |
